Values of other authors as cited in patent US20250288631A1, “PHYTOTHERAPY FORMULATION FOR SEXUAL DYSFUNCTIONS” (priority 2022, published 2025).

Conditions: EFSA (2015)

EFSA classification: class III
Exposure limit (class III, 60 kg person): 90 µg/person/day
SMILES: C/C=C/C=C\CC/C=C/C(=O)NCC(C)C [spilanthol]
